Data as given in patent US6737383B1, “Herbicidal oxadiazolidines” (priority 1999, dated 2004).

How the values were obtained:
[1] = system: crabgrass; assay: Test A crabgrass; assay type: in vivo, Digitaria spp.; conditions: 0 to 10 scale where 0 is no effect and 10 is complete control
How it was run: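 Visual injury score, 0 (no effect) to 10 (complete control), vs untreated controls at ~11 d in greenhouse. Pre: soil drench on sandy loam. Post: spray to runoff, 1–2 leaf stage.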

[2] = system: morningglory; assay: Test A morningglory; assay type: in vivo, Ipomoea spp.; conditions: 0 to 10 scale where 0 is no effect and 10 is complete control
Description: Seeds of barnyardgrass (Echinochloa crus-galli), crabgrass (Digitaria spp.), morningglory (Ipomoea spp.), and velvetleaf (Abutilon theophrasti) were planted into a sandy loam soil and treated preemergence by soil drench with test chemicals formulated in a non-phytotoxic solvent mixture which includes a surfactant At the same time, these crop and weed species were also treated postemergence sprayed to runoff, with test chemicals formulated in the same manner.
Plants ranged in height from two to eighteen cm and were in the one to two leaf stage for the postemergence treatment. Treated plants and untreated controls were maintained in a greenhouse for approximately eleven days, after which all treated plants were compared to untreated controls and visually evaluated for injury. Plant response ratings, summarized in Table A, are based on a 0 to 10 scale where 0 is no effect and 10 is complete control.

[3] = system: chickweed; assay: Test E chickweed; assay type: in vivo, Stellaria media; conditions: Preemergence, Rate 250 g/ha; 0 to 100 scale

Row | Compound | Plant response rating, Crabgrass ([1]; Postemergence, Rate 1000 g/ha) | Plant response rating, Crabgrass ([1]; Pre-emergence, Rate 2000 g/ha) | Plant response rating, Morningglory ([2]; Postemergence, Rate 1000 g/ha) | Plant response rating, Morningglory ([2]; Pre-emergence, Rate 2000 g/ha) | Plant response rating, Chickweed [3]
1 | CCc1cccc(C)c1-n1c(=O)on(C(=O)N(c2ccc(F)cc2)C(C)C)c1=O [Compound 52] | 8 | 10 | 1 | 0 | 
2 | Cc1cccc(Cl)c1-n1c(=O)on(C(=O)N(c2ccc(F)cc2)C(C)C)c1=O [Compound 53] | 6 | 9 | 0 | 0 | 
3 | C=CCn1c(=O)on(C(=O)N(c2ccc(Cl)cc2)C(C)C)c1=O [Compound 105] |  |  |  |  | 85
